# Patent US10442808B2, “Pyrazolo pyrimidine derivatives and their use as MALT1 inhbitors” (NOVARTIS AG, priority 2014, dated 2019)
# Target: C-domain of MALT1 (amino acids 329-824) (Homo sapiens (Human), UniProt Q9UDY8)
# Assay: MALT1 biochemical assay (fluorescence lifetime enzyme activity assay)
# Settings: 60 min preincubation, 2.5 nM enzyme, 1 μM substrate
# Experimental: The readout parameter is the increase of fluorescence lifetime over time, proportional to enzyme activity.
# The assay employs a short peptide substrate labeled with the single fluorophore PT14 as a fluorescence lifetime probe sensitive to the cleavage state of the substrate (PT14: 6-(9-oxo-9H-acridin-10-yl)-hexanoate, AssayMetrics, UK). […] The assay buffer consists of 200 mM Tris/HCl at pH 7.5, 0.8 M Na citrate, 100 μM EGTA, 100 μM DTT and 0.05% (w/v) CHAPS. […] Test compounds were dissolved in 100% (v/v) DMSO or a mixture containing 90% (v/v) DMSO and 10% (v/v) H2O at a stock concentration of 100 mM. Serial dilutions of test compounds were prepared using either 100% (v/v) DMSO or a mixture containing 90% (v/v) DMSO and 10% (v/v) H2O.
# The exponent, p, is the Hill coefficient.
# Sequence of C-domain of MALT1 (amino acids 329-824) (Q9UDY8 329-824): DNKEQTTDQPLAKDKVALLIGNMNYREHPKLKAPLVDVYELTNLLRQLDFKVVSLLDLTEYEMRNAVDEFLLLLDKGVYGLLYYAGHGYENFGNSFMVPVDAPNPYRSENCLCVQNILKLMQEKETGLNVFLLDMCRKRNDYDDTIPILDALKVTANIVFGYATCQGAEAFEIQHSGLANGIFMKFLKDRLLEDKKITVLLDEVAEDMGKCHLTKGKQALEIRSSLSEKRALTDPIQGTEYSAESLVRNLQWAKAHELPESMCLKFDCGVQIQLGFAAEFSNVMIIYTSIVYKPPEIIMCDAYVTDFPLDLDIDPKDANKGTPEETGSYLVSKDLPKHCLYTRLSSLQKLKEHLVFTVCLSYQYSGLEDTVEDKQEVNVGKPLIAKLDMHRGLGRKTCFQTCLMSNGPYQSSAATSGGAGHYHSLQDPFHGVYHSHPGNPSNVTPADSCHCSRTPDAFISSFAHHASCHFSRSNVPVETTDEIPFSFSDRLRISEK
row,IC50 [nM],Compound
1,18,"CC(C)(C)OC(=O)N1CCOC(c2c(NC(=O)Nc3cnc(-n4nccn4)c(Cl)c3)cnc3cc(Cl)nn23)C1 (stereo not shown) [Example 66, tert-butyl 2-(2-chloro-6-(3-(5-chloro-6-(2H-1,2,3-triazol-2-yl)pyridin-3-yl)ureido)pyrazolo[1,5-a]pyrimidin-7-yl)morpholine-4-carboxylate]"
2,12,"CN[C@@H](C)c1c(NC(=O)Nc2cnc(-n3nccn3)c(Cl)c2)cnc2cc(Cl)nn12 [Example 119, (S)-1-(5-chloro-6-(2H-1,2,3-triazol-2-yl)pyridin-3-yl)-3-(2-chloro-7-(1-(methylamino)ethyl)pyrazolo[1,5-a]pyrimidin-6-yl)urea]"
3,5,"C[C@H](O[C@H]1CCOC1)c1c(NC(=O)Nc2cnc(-n3nccn3)c(Cl)c2)cnc2cc(Cl)nn12 [Example 101, 1-(5-chloro-6-(2H-1,2,3-triazol-2-yl)pyridin-3-yl)-3-(2-chloro-7-((S)-1-(((S)-tetrahydrofuran-3-yl)oxy)ethyl)pyrazolo [1,5-a]pyrimidin-6-yl)urea]"
4,76,"O=C(Nc1cnc(-n2nccn2)c(Cl)c1)Nc1cnc2cc(Cl)nn2c1C1CNCCO1 (stereo not shown) [Example 115, 1-(5-chloro-6-(2H-1,2,3-triazol-2-yl)pyridin-3-yl)-3-(2-chloro-7-(morpholin-2-yl)pyrazolo[1,5-a]pyrimidin-6-yl)urea]"
5,41,"O=C(Nc1cnc(-n2nccn2)c(Cl)c1)Nc1cnc2cc(Cl)nn2c1C1COCCN1 (stereo not shown) [Example 123, 1-(5-chloro-6-(2H-1,2,3-triazol-2-yl)pyridin-3-yl)-3-(2-chloro-7-(morpholin-3-yl)pyrazolo[1,5-a]pyrimidin-6-yl)urea]"
6,9,"Cc1cc(CO)nn1-c1ccc(NC(=O)Nc2cnc3cc(Cl)nn3c2C(C)C)cc1Cl [Example 28, 1-(3-chloro-4-(3-(hydroxymethyl)-5-methyl-1H-pyrazol-1-yl)phenyl)-3-(2-chloro-7-isopropylpyrazolo[1,5-a]pyrimidin-6-yl)urea]"

row,Compound,IC50 [nM]
1,"C[C@H](O)c1c(NC(=O)Nc2ccnc(C(F)(F)F)c2)cnc2cc(Cl)nn12 [Example 114, (S)-1-(2-chloro-7-(1-hydroxyethyl)pyrazolo[1,5-a]pyrimidin-6-yl)-3-(2-(trifluoromethyl)pyridin-4-yl)urea]",7

# Tested on: IL2 promoter
# Assay: Human IL2 promoter reporter gene assay (RGA) in Jurkat cells
# Format: cell-based
# Settings: […], heading: IL2 reporter gene assay IC50, anti-CD28 mAb + PMA stimulation 5.5 h
# Experimental: Human IL2 Promoter Reporter Gene Assay (RGA) in Jurkat Cells
# The transfected Jurkat clone K22 290_H23 was propagated in RPMI 1640 supplemented with 10% heat inactivated fetal calf serum, 50 μM 2-mercaptoethanol and 1 mg/ml Geneticin. The cell concentration should not exceed 1×10e6/ml during culturing. The cells should not exceed passage 30. Prior to the assay the cells were washed and prepared to the concentration of 2×10e6 cells/ml.
# Compound dilutions were made as 2×-concentrated solutions then diluted ½ by addition to cells. Two hundred and fifty μl of compound dilution and 250 μl of cells were mixed together in wells of a 96-deep well plate. Cells/compounds premix were incubated 30 min at 37° C. and 5% CO2 directly in the deep well plate.
# After pre-incubation of cells with compounds, cells were stimulated with anti-CD28 mAb (clone 15E8) at 3 μg/ml+PMA at 1 μg/ml. Both co-stimulants were diluted in culture medium at a 10×-concentrated solution. 10 μl of co-stimulants were pipetted into the white 96-well plates and 100 μl of cell/compound mix was immediately added in duplicates. The cells were stimulated for 5.5 h at 37° C. and 5% CO2.
# After cell stimulation, 50 μl of BriteLitePlus reagent (Perkin Elmer) was added to each well and the bioluminescence was measured with a Wallac EnVision reader (Perkin Elmer).
row,IC50 [nM],Compound
1,28,"CC(C)(C)OC(=O)N1CCOC(c2c(NC(=O)Nc3cnc(-n4nccn4)c(Cl)c3)cnc3cc(Cl)nn23)C1 (stereo not shown) [Example 66, tert-butyl 2-(2-chloro-6-(3-(5-chloro-6-(2H-1,2,3-triazol-2-yl)pyridin-3-yl)ureido)pyrazolo[1,5-a]pyrimidin-7-yl)morpholine-4-carboxylate]"
2,63,"CN(C)C(=O)c1c(NC(=O)Nc2cnc(-n3nccn3)c(Cl)c2)cnc2cc(Cl)nn12 [Example 70, 2-chloro-6-(3-(5-chloro-6-(2H-1,2,3-triazol-2-yl)pyridin-3-yl)ureido)-N,N-dimethylpyrazolo[1,5-a]pyrimidine-7-carboxamide]"
3,138,"COC[C@H](C)c1c(NC(=O)Nc2cnc(-n3nccn3)c(C(F)(F)F)c2)cnc2cc(Cl)nn12 [Example 111, (R)-1-(6-(2H-1,2,3-triazol-2-yl)-5-(trifluoromethyl)pyridin-3-yl)-3-(2-chloro-7-(1-methoxypropan-2-yl)pyrazolo[1,5-a]pyrimidin-6-yl)urea]"
4,245,"COc1ncc(NC(=O)Nc2cnc3cc(Cl)nn3c2C(C)C)cc1Cl [Example 18, 1-(5-chloro-6-methoxypyridin-3-yl)-3-(2-chloro-7-isopropylpyrazolo[1,5-a]pyrimidin-6-yl)urea]"
5,14,"COC(c1c(NC(=O)Nc2ccnc(C(F)(F)F)c2)cnc2cc(Cl)nn12)C1CCOCC1 (stereo not shown) [Example 90, 1-(2-chloro-7-(methoxy(tetrahydro-2H-pyran-4-yl)methyl)pyrazolo[1,5-a]pyrimidin-6-yl)-3-(2-(trifluoromethyl)pyridin-4-yl)urea]"
6,46,"CC(C)(c1c(NC(=O)Nc2ccnc(C(F)(F)F)c2)cnc2cc(Cl)nn12)C1CCOCC1 [Example 80, 1-(2-chloro-7-(2-(tetrahydro-2H-pyran-4-yl)propan-2-yl)pyrazolo[1,5-a]pyrimidin-6-yl)-3-(2-(trifluoromethyl)pyridin-4-yl)urea]"
7,32,"COCCC(OC)c1c(NC(=O)Nc2cnc(-n3nccn3)c(Cl)c2)cnc2cc(Cl)nn12 (stereo not shown) [Example 64, 1-(5-chloro-6-(2H-1,2,3-triazol-2-yl)pyridin-3-yl)-3-(2-chloro-7-(1,3-dimethoxypropyl)pyrazolo[1,5-a]pyrimidin-6-yl)urea]"
8,199,"COCC(OC)c1c(NC(=O)Nc2ccnc(C(F)(F)F)c2)cnc2cc(Cl)nn12 (stereo not shown) [Example 109, 1-(2-chloro-7-(1,2-dimethoxyethyl)pyrazolo[1,5-a]pyrimidin-6-yl)-3-(2-(trifluoromethyl)pyridin-4-yl)urea]"
9,100,"CC(C)c1c(NC(=O)Nc2ccc(-n3nccn3)c(Cl)c2)cnc2cc(Cl)nn12 [Example 20, l-(3-chloro-4-(2H-1,2,3-triazol-2-yl)phenyl)-3-(2-chloro-7-isopropylpyrazolo [1,5-a]pyrimidin-6-yl)urea]"
10,221,"CC(C)c1c(NC(=O)Nc2cnc(-c3ccnn3C)c(Cl)c2)cnc2cc(Cl)nn12 [Example 29, 1-(5-chloro-6-(1-methyl-1H-pyrazol-5-yl)pyridin-3-yl)-3-(2-chloro-7-isopropylpyrazolo[1,5-a]pyrimidin-6-yl)urea]"
11,17,"COCC(OC)c1c(NC(=O)Nc2cnc(-n3nccn3)c(C(F)(F)F)c2)cnc2cc(Cl)nn12 (stereo not shown) [Example 108, 1-(6-(2H-1,2,3-triazol-2-yl)-5-(trifluoromethyl)pyridin-3-yl)-3-(2-chloro-7-(1,2-dimethoxyethyl)pyrazolo[1,5-a]pyrimidin-6-yl)urea]"
12,134,"Cc1cc2ncc(NC(=O)Nc3cnc(-n4nccn4)c(Cl)c3)c(C3(C)CCCO3)n2n1 (stereo not shown) [Example 104, 1-(5-chloro-6-(2H-1,2,3-triazol-2-yl)pyridin-3-yl)-3-(2-methyl-7-(2-methyltetrahydrofuran-2-yl)pyrazolo[1,5-a]pyrimidin-6-yl)urea]"
13,78,"C[C@@H](O)c1c(NC(=O)Nc2cnc(-n3nccn3)c(C(F)(F)F)c2)cnc2cc(Cl)nn12 [Example 113, (R)-1-(6-(2H-1,2,3-triazol-2-yl)-5-(trifluoromethyl)pyridin-3-yl)-3-(2-chloro-7-(1-hydroxyethyl)pyrazolo[1,5a]pyrimidin-6-yl)urea]"
14,84,"CN(C)C1(c2c(NC(=O)Nc3cnc(-n4nccn4)c(Cl)c3)cnc3cc(Cl)nn23)CC1 [Example 88, 1-(5-chloro-6-(2H-1,2,3-triazol-2-yl)pyridin-3-yl)-3-(2-chloro-7-(1-(dimethylamino)cyclopropyl)pyrazolo[1,5-a]pyrimidin-6-yl)urea]"
15,46,"COCC1(c2c(NC(=O)Nc3ccnc(C(F)(F)F)c3)cnc3cc(Cl)nn23)CC1 [Example 77, 1-(2-chloro-7-(1-(methoxymethyl)cyclopropyl)pyrazolo[1,5-a]pyrimidin-6-yl)-3-(2-(trifluoromethyl)pyridin-4-yl)urea]"
16,30,"CO[C@@H](C)c1c(NC(=O)Nc2ccnc(C(F)(F)F)c2)cnc2cc(C)nn12 [Example 6, (S)-1-(7-(1-methoxyethyl)-2-methylpyrazolo[1,5-a]pyrimidin-6-yl)-3-(2-(trifluoromethyl)pyridin-4-yl)urea]"
17,145,"CC(C)(C)c1c(NC(=O)Nc2cnc(-n3nccn3)c(Cl)c2)cnc2cc(Cl)nn12 [Example 34, 1-(7-(tert-butyl)-2-chloropyrazolo[1,5-a]pyrimidin-6-yl)-3-(5-chloro-6-(2H-1,2,3-triazol-2-yl)pyridin-3-yl)urea]"
18,59,"CC(C)c1c(NC(=O)Nc2cc(C(F)(F)F)cn(C)c2=O)cnc2cc(Cl)nn12 [Example 32, 1-(2-chloro-7-isopropylpyrazolo[1,5-a]pyrimidin-6-yl)-3-(1-methyl-2-oxo-5-(trifluoromethyl)-1,2-dihydropyridin-3-yl)urea]"

row,Compound,IC50 [nM]
1,"COC[C@H](C)c1c(NC(=O)Nc2cnc(-n3nccn3)c(Cl)c2)cnc2cc(Cl)nn12 [Example 45, (R)-1-(5-chloro-6-(2H-1,2,3-triazol-2-yl)pyridin-3-yl)-3-(2-chloro-7-(1-methoxypropan-2-yl)pyrazolo[1,5-a]pyrimidin-6-yl)urea]",63
2,"CO[C@@H](C)c1c(NC(=O)Nc2cncc(C#N)c2)cnc2cc(Cl)nn12 [Example 8, (S)-1-(2-chloro-7-(1-methoxyethyl)pyrazolo[1,5-a]pyrimidin-6-yl)-3-(5-cyanopyridin-3-yl)urea]",109

# Same assay, conditions: anti-CD28 mAb + PMA stimulation 5.5 h
row,Compound,IC50 [nM]
1,"CO[C@@H](C)c1c(NC(=O)Nc2cc(C(F)(F)F)cn(C)c2=O)cnc2cc(Cl)nn12 [Example 3, (S)-1-(2-chloro-7-(1-methoxyethyl)pyrazolo[1,5-a]pyrimidin-6-yl)-3-(1-methyl-2-oxo-5-(trifluoromethyl)-1,2-dihydropyridin-3-yl)urea]",131
